Data from paper PMC9097129, “C-terminal mini-PEGylation of a marine peptide N6 had potent antibacterial and anti-inflammatory properties against Escherichia coli and Salmonella strains in vitro and in vivo” (BMC Microbiology, 2022).

How the values were obtained:
[1] = tested on: S. pullorum CVCC533; assay: Time-killing curves; format: cell-based, Salmonella pullorum; details: 1 × MIC
Description: The sample (100 μL) was taken from each flask at 0, 0.5, 1, 2, 4, 6, 8, 10, 12, and 24 h, respectively and serially diluted for colony counting. The group untreated with peptides was a blank control. PMB and CIP were used as the positive control. Similarly, bacterial cells (1 × 10^5 CFU/mL) were incubated with 3/128, 1/32, 3/64, 1/16, 3/32, 1/8, 3/16, 1/4, 3/8, 1/2, 3/4, 1, 2, 3, and 4 × MIC N6 or N6-COOH-miniPEG. The sample was taken from each flask at 24 h and serially diluted for colony counting.

[2] = tested on: S. pullorum CVCC533; assay: Bacterial translocation, bacterial loads in organs; format: in vivo, mice; set-up: bacteria counted in the organs of mice infected with S. pullorum: unit not given here
Description: (§1) The mice (10 mice/group) were challenged with E. coli CVCC195 (1 × 10^9 CFU/mL, 0.2 mL) or S. pullorum CVCC533 (5 × 10^7 CFU/mL, 0.2 mL) by intraperitoneal injection and treated with N6 (4 and 10 μmol/kg) or N6-COOH-miniPEG (4 and 10 μmol/kg). To evaluate bacterial loads in organs, the livers, spleens, kidneys and lungs were removed from the sacrificed mice at 24 h post treatment and homogenized in sterile PBS for E. coli CVCC195 colony counting; similarly, the livers, spleens, kidneys and lungs were removed from the sacrificed mice at 48 h after treatment and homogenized in sterile PBS for S. pullorum CVCC533 colony counting. The uninfected mice served as the blank control (CK); the infected mice treated with PBS were used as the negative control. The mice were sacrificed by neck dislocation under inhaled isoflurane anesthesia (RWD Life Science Co., LTD. Shenzhen, China).

[3] = tested on: S. pullorum CVCC533; assay: Organ injury, histopathology (HE); format: in vivo, mice; details: 48 h and 4 d post-treatment, peptides 10 μmol/kg, HE staining
Description: (§2) The mice were treated with N6 (4 and 10 μmol/kg) and N6-COOH-miniPEG (4 and 10 μmol/kg) after intraperitoneal injection of E. coli CVCC195 for 0.5 and 8 h or S. pullorum CVCC533 for 0.5 h as described above. Livers, spleens, kidneys and lungs were removed from the mice at 24 h and 5 d post-treatment after E. coli CVCC195 injection and at 48 h and 4 d post-treatment after S. pullorum CVCC533 injection, respectively, washed in PBS, fixed in 4% paraformaldehyde at 4 °C for 24 h, and stained with hematoxylin and eosin (HE) for histopathology analysis. Finally, the tissue samples were fixed and observed by the light microscope. The uninfected mice served as the blank control (CK); the infected mice being treated with PBS were used as the negative control.

[4] = tested on: S. pullorum CVCC533; assay: Mouse peritonitis model, survival; format: in vivo, ICR mice
Description: (§3) Similarly, after the intraperitoneal injection with S. pullorum CVCC533 (5 × 10^7 CFU/mL, 0.2 mL), the mice were treated with N6 (8 and 10 μmol/kg), N6-COOH-miniPEG (8 and 10 μmol/kg) or CIP (0.8 and 1 μmol/kg) at 0.5 h, respectively. The mice injected with antibiotics or PBS served as the positive and blank control (CK), respectively. Survival of the mice was recorded daily for 7 d.

[5] = tested on: E. coli 0111:B4 LPS; assay: Endotoxemia mouse model, serum cytokines by ELISA; format: in vivo, mice; set-up: levels of TNF-α in sera: unit not given here; details: for Decrease of serum IL-1β level / Decrease of serum IL-6 level / Decrease of serum IL-10 level / Decrease of serum TNF-α level: LPS 10 mg/kg i.p., peptides 0.25 μmol/kg, PMB 10 μmol/kg, CIP 5 μmol/kg; for levels of IL-1β in sera / levels of TNF-α in sera: ELISA kit, mean of n = 3
Description: The mice (10 mice/group) were injected intraperitoneally with N6 and N6-COOH-miniPEG (0.25 μmol/kg), PMB (10 μmol/kg) or CIP (5 μmol/kg) 0.5 h after challenge with 10 mg/kg E. coli 0111:B4 LPS. Blood was collected in a heparin sodium tube at 2 or 8 h after LPS injection and incubated for 30 min at 37 °C and then overnight at 4 °C. After centrifugation at 3,000 rpm for 10 min at 4 °C, serum was collected from supernatant. The cytokine levels of TNF-α, IL-6, IL-1β and IL-10 in serum were detected by the Jiaxuan Biotech. Co. Ltd. (Beijing, China) using an ELISA. […]

[6] = tested on: E. coli CVCC195; assay: Mouse peritonitis model, survival; format: in vivo, ICR mice; set-up: survival of mice in E. coli lethal model: unit not given here
Description: To evaluate in vivo efficacy of N6 and N6-COOH-miniPEG, the 6-week-old female ICR mice, weight 20 ± 2 g (10 mice/group) were intraperitoneally injected with E. coli CVCC195 or S. pullorum CVCC533 at a concentration of absolute lethal dose (LD100). After the intraperitoneal injection with E. coli CVCC195 (1 × 10^9 CFU/mL, 0.2 mL), the mice were treated with N6 (2 and 4 μmol/kg), N6-COOH-miniPEG (2 and 4 μmol/kg) or PMB (0.125 and 0.25 μmol/kg) at 0.5 h and 8 h, respectively.
as §3

[7] = tested on: E. coli CVCC195; assay: Organ injury, histopathology (HE); format: in vivo, mice; details: 24 h and 5 d post-treatment, peptides 4 μmol/kg, HE staining
Description: as §2

[8] = tested on: E. coli CVCC195; assay: Bacterial translocation, bacterial loads in organs; format: in vivo, mice; set-up: unit not given here; details: mean of n = 3
Description: as §1

[9] = peptides 10 μmol/kg, CIP 1 μmol/kg, 48 h after treatment, versus untreated infected mice

O=C(O)c1cn(C2CC2)c2cc(N3CCNCC3)c(F)cc2c1=O [CIP]
Time to kill 99.9% of cells [1]: ≤ 6 h | bacteria counted in the organs of mice infected with S. pullorum ([2]; Kidney, mean): 3.299 | bacteria counted in the organs of mice infected with S. pullorum ([2]; Liver, replicate 1): 3.641 | bacteria counted in the organs of mice infected with S. pullorum ([2]; Liver, replicate 2): 4.221 | bacteria counted in the organs of mice infected with S. pullorum ([2]; Lung, mean): 3.527 | bacteria counted in the organs of mice infected with S. pullorum ([2]; Spleen, replicate 1): 4.255 | bacteria counted in the organs of mice infected with S. pullorum ([2]; Spleen, replicate 2): 4.222 | bacteria counted in the organs of mice infected with S. pullorum ([2]; Spleen, replicate 3): 3.905 | Decrease of bacterial count in kidneys [2, 9]: 40.20% | Decrease of bacterial count in livers [2, 9]: 31.66% | Decrease of bacterial count in lungs [2, 9]: 43.65% | Decrease of bacterial count in spleens [2, 9]: 47.75% | Organ injury, histopathology [3]: apparently less damage of liver, spleen, kidney and lung | survival of mice in S. pullorum lethal model ([4]; 0.8 μmol/kg, day 0): 100 | survival of mice in S. pullorum lethal model ([4]; 0.8 μmol/kg, day 1): 100 | survival of mice in S. pullorum lethal model ([4]; 0.8 μmol/kg, day 2): 100 | survival of mice in S. pullorum lethal model ([4]; 0.8 μmol/kg, day 3): 100 | survival of mice in S. pullorum lethal model ([4]; 0.8 μmol/kg, day 4): 83.3333 | survival of mice in S. pullorum lethal model ([4]; 0.8 μmol/kg, day 5): 83.3333 | survival of mice in S. pullorum lethal model ([4]; 0.8 μmol/kg, day 6): 83.3333 | survival of mice in S. pullorum lethal model ([4]; 0.8 μmol/kg, day 7): 83.3333 | Survival rate of mice ([4]; 1 μmol/kg i.p. at 0.5 h (legend of Fig. 6: 0.5 and 8 h), 7 d): 100% | survival of mice in S. pullorum lethal model ([4]; 1 μmol/kg, day 0): 100 | survival of mice in S. pullorum lethal model ([4]; 1 μmol/kg, day 1): 100 | survival of mice in S. pullorum lethal model ([4]; 1 μmol/kg, day 2): 100 | survival of mice in S. pullorum lethal model ([4]; 1 μmol/kg, day 3): 100 | survival of mice in S. pullorum lethal model ([4]; 1 μmol/kg, day 4): 100 | survival of mice in S. pullorum lethal model ([4]; 1 μmol/kg, day 5): 100 | survival of mice in S. pullorum lethal model ([4]; 1 μmol/kg, day 6): 100 | survival of mice in S. pullorum lethal model ([4]; 1 μmol/kg, day 7): 100 | Decrease of serum IL-1β level ([5]; 2 h): 9.13% | Decrease of serum IL-6 level ([5]; 2 h): 30.83% | Decrease of serum IL-10 level ([5]; 2 h): 15.33% | Decrease of serum TNF-α level ([5]; 2 h): 1.78% | levels of IL-1β in sera ([5]; 2 h after treatment): 87.9333 | levels of TNF-α in sera ([5]; 2 h after treatment): 153 | Decrease of serum IL-1β level ([5]; 8 h): 0.07% | Decrease of serum IL-6 level ([5]; 8 h): -0.24% | Decrease of serum IL-10 level ([5]; 8 h): 0.13% | Decrease of serum TNF-α level ([5]; 8 h): -0.37% | levels of IL-1β in sera ([5]; 8 h after treatment): 171.167 | levels of TNF-α in sera ([5]; 8 h after treatment): 559.733

polymyxin B [PMB]
survival of mice in E. coli lethal model ([6]; 0.125 μmol/kg, day 0): 100 | survival of mice in E. coli lethal model ([6]; 0.125 μmol/kg, day 1): 80 | survival of mice in E. coli lethal model ([6]; 0.125 μmol/kg, day 2): 60 | survival of mice in E. coli lethal model ([6]; 0.125 μmol/kg, day 3): 30 | survival of mice in E. coli lethal model ([6]; 0.125 μmol/kg, day 4): 30 | survival of mice in E. coli lethal model ([6]; 0.125 μmol/kg, day 5): 30 | survival of mice in E. coli lethal model ([6]; 0.125 μmol/kg, day 6): 30 | survival of mice in E. coli lethal model ([6]; 0.125 μmol/kg, day 7): 30 | Survival rate of mice ([6]; 0.25 μmol/kg i.p. at 0.5 h and 8 h, 7 d): 100% | survival of mice in E. coli lethal model ([6]; 0.25 μmol/kg, day 0): 100 | survival of mice in E. coli lethal model ([6]; 0.25 μmol/kg, day 1): 100 | survival of mice in E. coli lethal model ([6]; 0.25 μmol/kg, day 2): 100 | survival of mice in E. coli lethal model ([6]; 0.25 μmol/kg, day 3): 100 | survival of mice in E. coli lethal model ([6]; 0.25 μmol/kg, day 4): 100 | survival of mice in E. coli lethal model ([6]; 0.25 μmol/kg, day 5): 100 | survival of mice in E. coli lethal model ([6]; 0.25 μmol/kg, day 6): 100 | survival of mice in E. coli lethal model ([6]; 0.25 μmol/kg, day 7): 100 | Organ injury, histopathology [7]: apparently less damage of liver, spleen, kidney and lung | levels of TNF-α in sera ([5]; 2 h after treatment): 99.8667 | levels of TNF-α in sera ([5]; 8 h after treatment): 239.767 | bacteria counted in the organs of mice infected with E. coli ([8]; Kidney): 3.851 | bacteria counted in the organs of mice infected with E. coli ([8]; Liver): 3.743 | bacteria counted in the organs of mice infected with E. coli ([8]; Lung): 3.796 | bacteria counted in the organs of mice infected with E. coli ([8]; Spleen): 3.605
